Test results from US8415469B2, “Compounds and methods for kinase modulation, and indications therefor” (Plexxikon Inc., priority 2005, dated 2013).

Key:
Format in all cases: biochemical
Pyk2 = target: T1, Pyk2 (Homo sapiens, UniProt Q14289); assay: AlphaScreen kinase assay, Pyk2; conditions: read-out: IC50, activity toward kinase Pyk2
T1 construct: purchased Upstate Biotechnology

Itk = target: T2, Itk (Homo sapiens, UniProt Q08881); assay: AlphaScreen kinase assay, Itk; conditions: read-out: IC50, activity toward kinase Itk
T2 sequence (Q08881 1-620): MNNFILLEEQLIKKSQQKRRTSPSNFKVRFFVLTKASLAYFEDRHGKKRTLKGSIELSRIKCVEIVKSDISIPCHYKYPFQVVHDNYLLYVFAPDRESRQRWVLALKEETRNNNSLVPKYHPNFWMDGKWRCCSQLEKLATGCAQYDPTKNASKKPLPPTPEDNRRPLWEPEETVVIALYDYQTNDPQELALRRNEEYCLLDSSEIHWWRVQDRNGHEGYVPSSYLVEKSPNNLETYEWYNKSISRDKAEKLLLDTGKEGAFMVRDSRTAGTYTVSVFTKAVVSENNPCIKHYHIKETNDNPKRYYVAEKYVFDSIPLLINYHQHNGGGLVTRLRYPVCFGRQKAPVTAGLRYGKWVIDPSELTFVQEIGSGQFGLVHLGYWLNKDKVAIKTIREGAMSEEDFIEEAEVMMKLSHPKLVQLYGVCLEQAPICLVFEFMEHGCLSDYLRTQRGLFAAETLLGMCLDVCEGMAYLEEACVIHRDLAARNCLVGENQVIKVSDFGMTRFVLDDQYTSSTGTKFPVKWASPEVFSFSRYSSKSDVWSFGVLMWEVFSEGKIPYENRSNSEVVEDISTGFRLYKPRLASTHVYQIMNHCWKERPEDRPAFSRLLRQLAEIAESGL
Method in brief: (§1)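 Emission from acceptor beads reports phosphorylated biotin-peptide bridging antibody-coated acceptor and streptavidin donor beads; loss of signal reflects kinase inhibition. Eight-point, threefold dilution series prepared from 20 mM DMSO stocks.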

Flt1 = target: T3, Flt1 (Homo sapiens, UniProt P17948); assay: AlphaScreen kinase assay, Flt1; conditions: read-out: IC50, activity toward kinase Flt1
T3 construct: P1826.pETN6 BI-PTP FLT1 M799-D1165-X WT; His6 (N); made in house; host or cells: E. coli (PTP1B co-expressed)
T3 sequence (P17948 with tags, fused parts or gaps): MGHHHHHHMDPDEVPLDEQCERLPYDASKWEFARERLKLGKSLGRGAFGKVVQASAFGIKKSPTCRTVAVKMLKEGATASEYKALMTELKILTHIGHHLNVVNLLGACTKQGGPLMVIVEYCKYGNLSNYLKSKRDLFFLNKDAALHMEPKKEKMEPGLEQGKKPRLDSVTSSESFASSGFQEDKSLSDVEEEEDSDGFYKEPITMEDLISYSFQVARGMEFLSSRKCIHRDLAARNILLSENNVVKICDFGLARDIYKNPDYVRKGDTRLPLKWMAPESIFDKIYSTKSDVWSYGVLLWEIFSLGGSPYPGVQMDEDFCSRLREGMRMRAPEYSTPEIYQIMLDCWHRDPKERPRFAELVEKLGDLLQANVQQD

Flt4 = target: T4, Flt4 (Homo sapiens, UniProt P35916); assay: AlphaScreen kinase assay, Flt4; conditions: read-out: IC50, activity toward kinase Flt4
T4 construct: purchased ProQinase GmbH (Freiburg, Germany)
T4 sequence (P35916 25-1363): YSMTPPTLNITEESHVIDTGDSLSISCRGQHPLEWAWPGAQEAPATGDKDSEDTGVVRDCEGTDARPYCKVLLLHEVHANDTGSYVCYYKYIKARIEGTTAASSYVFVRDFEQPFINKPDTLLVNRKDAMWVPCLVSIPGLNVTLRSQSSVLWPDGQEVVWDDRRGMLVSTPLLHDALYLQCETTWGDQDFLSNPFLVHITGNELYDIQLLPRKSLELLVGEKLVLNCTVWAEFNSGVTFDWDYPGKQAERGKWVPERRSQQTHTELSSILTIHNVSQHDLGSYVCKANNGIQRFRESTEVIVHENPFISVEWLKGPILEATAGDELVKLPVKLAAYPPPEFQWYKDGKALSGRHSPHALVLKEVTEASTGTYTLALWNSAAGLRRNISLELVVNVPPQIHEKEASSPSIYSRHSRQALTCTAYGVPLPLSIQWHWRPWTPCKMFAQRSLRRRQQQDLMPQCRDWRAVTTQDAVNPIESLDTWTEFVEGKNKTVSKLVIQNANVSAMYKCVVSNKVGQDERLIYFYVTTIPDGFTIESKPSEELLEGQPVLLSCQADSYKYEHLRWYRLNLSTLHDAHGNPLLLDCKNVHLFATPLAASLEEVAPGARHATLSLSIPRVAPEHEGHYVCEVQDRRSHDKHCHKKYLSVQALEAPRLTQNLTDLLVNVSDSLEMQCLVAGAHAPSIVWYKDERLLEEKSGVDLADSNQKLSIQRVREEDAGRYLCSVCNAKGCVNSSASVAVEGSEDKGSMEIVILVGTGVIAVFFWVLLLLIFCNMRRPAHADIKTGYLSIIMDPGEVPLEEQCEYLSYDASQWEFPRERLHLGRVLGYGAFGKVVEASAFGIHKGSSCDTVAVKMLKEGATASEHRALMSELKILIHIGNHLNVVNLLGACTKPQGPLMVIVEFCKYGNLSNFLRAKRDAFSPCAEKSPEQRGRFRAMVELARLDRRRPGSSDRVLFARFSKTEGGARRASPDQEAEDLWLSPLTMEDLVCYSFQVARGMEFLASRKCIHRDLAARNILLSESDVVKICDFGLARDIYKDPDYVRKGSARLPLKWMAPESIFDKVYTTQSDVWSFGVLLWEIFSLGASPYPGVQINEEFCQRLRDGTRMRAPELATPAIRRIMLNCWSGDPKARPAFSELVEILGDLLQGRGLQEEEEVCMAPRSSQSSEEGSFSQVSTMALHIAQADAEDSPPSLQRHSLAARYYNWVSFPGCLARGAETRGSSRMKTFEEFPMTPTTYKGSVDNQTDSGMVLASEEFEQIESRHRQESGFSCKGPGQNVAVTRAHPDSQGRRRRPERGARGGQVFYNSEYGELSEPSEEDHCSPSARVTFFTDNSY
Method in brief: as §1

Jak3 = target: T5, Jak3 (Homo sapiens, UniProt P52333); assay: AlphaScreen kinase assay, Jak3; conditions: read-out: IC50, activity toward kinase Jak3
T5 sequence (P52333 1-1124): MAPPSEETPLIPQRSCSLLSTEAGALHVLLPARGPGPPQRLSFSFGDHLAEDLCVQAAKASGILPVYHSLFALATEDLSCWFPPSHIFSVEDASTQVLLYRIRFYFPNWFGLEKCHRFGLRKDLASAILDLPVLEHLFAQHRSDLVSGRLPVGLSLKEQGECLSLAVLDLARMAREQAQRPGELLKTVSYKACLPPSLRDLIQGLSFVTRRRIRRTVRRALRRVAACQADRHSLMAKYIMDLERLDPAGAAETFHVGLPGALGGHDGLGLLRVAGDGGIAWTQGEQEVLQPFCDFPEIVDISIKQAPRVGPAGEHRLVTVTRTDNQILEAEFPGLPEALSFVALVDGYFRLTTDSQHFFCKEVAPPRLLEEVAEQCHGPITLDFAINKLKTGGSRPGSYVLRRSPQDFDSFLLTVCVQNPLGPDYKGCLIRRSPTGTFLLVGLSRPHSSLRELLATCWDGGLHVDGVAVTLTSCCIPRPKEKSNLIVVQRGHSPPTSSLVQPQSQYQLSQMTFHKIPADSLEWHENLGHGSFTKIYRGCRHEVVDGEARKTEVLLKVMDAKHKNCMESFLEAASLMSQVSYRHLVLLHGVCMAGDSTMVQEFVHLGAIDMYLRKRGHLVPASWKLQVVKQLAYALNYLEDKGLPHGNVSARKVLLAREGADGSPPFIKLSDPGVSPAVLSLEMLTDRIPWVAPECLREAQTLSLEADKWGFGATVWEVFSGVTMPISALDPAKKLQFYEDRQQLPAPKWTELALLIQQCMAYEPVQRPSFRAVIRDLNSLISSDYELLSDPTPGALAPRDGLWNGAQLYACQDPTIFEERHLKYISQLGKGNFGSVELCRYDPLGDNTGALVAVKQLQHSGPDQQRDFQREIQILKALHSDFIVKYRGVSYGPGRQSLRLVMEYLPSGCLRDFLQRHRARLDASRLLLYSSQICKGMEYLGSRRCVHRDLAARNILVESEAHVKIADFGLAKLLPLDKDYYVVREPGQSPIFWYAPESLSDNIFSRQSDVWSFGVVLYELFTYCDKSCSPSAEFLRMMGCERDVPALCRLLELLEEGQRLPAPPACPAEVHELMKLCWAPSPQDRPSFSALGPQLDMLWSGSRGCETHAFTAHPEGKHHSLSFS
Method in brief: as §1

Jnk2 = target: T6, Jnk2 (Homo sapiens, UniProt P45984); assay: AlphaScreen kinase assay, Jnk2; conditions: read-out: IC50, activity toward kinase Jnk2
T6 construct: purchased Roche Protein Expression Group (Indianapolis, IN)
T6 sequence (P45984 whole entry): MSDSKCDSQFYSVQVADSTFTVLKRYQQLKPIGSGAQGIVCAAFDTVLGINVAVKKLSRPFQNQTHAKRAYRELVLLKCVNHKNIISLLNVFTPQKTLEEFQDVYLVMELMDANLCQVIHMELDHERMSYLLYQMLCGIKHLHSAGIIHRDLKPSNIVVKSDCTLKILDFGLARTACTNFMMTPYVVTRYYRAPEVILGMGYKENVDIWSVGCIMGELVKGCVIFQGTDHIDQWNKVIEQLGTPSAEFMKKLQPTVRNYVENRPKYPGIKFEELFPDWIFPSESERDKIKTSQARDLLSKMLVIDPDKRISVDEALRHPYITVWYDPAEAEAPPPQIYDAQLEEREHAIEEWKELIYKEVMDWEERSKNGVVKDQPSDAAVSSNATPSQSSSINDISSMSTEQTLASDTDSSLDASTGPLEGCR
Method in brief: as §1

MAP2K1 = target: T7, MAP2K1 (Homo sapiens, UniProt Q02750); assay: Z'-Lyte FRET kinase assay (Invitrogen), MAP2K1; conditions: read-out: IC50, activity toward kinase MAP2K1
T7 construct: purchased Invitrogen (assay run by Invitrogen)
T7 sequence (Q02750 whole entry): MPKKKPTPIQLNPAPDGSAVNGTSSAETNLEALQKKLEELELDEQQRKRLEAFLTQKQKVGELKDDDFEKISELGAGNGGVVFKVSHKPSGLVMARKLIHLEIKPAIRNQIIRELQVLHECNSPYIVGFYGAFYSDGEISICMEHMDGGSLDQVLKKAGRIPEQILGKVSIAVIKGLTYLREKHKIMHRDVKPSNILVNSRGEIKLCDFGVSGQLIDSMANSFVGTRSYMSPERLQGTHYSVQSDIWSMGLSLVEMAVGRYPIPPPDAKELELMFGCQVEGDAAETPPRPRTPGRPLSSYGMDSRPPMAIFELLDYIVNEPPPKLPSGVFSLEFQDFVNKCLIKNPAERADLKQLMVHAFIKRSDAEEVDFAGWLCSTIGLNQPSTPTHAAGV

T1 sequence (Q14289 whole entry): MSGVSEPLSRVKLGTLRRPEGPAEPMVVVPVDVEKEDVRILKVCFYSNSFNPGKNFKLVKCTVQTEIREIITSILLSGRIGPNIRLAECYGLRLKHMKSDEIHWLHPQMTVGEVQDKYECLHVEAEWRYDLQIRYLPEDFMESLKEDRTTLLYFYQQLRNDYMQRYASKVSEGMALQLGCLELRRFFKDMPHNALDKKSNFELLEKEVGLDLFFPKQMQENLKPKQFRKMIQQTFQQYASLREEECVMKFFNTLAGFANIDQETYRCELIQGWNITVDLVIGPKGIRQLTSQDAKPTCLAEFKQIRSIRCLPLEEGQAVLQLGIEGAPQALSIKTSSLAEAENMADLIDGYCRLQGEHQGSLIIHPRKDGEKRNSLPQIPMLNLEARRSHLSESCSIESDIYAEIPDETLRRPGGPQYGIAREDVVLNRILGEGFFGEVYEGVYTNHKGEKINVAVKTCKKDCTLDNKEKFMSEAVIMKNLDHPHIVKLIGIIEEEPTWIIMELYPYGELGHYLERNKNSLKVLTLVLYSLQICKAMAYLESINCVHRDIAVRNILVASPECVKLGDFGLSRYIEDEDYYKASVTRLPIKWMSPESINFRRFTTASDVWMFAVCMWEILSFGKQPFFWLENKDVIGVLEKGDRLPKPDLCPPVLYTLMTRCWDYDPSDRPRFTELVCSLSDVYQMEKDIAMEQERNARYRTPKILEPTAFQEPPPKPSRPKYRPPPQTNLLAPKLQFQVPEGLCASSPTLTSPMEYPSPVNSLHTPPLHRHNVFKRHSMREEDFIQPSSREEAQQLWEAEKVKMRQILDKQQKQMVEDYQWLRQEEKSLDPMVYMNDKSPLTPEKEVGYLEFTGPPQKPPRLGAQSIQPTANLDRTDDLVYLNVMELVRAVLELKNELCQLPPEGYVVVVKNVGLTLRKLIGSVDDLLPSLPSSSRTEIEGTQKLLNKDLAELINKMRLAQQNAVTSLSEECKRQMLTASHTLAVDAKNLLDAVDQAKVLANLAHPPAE

Row | IC50 (Pyk2) [µM] | IC50 (Itk) [µM] | IC50 (Flt1) [µM] | IC50 (Flt4) [µM] | IC50 (Jak3) [µM] | IC50 (Jnk2) [µM] | IC50 (MAP2K1) [µM] | SMILES
1 | ≤ 10 | ≤ 10 | ≤ 10 | ≤ 10 | ≤ 10 |  |  | O=C(c1ccc(O)cc1)c1c[nH]c2ncc(-c3cccs3)cc12 [Compound P-0024, (4-Hydroxy-phenyl)-(5-thiophen-2-yl-1H-pyrrolo[2,3-b]pyridin-3-yl)-methanone]
2 |  | ≤ 10 | ≤ 10 | ≤ 10 | ≤ 10 |  |  | O=C(c1cccc(O)c1)c1c[nH]c2ncc(Br)cc12 [Compound P-0019]
3 | ≤ 10 | ≤ 10 | ≤ 10 | ≤ 10 | ≤ 10 | ≤ 10 |  | O=C(c1cccc(O)c1F)c1c[nH]c2ncc(-c3cccs3)cc12 [Compound P-0521, (2-fluoro-3-hydroxy-phenyl)-(5-thiophen-2-yl-1H-pyrrolo[2,3-b]pyridin-3-yl)-methanone]
4 |  | ≤ 10 | ≤ 10 | ≤ 10 | ≤ 10 |  | ≤ 10 | Nc1cccc(-c2cnc3[nH]cc(C(=O)c4cccc(O)c4)c3c2)c1 [Compound P-0003]
5 |  | ≤ 10 | ≤ 10 |  | ≤ 10 | ≤ 10 |  | Oc1ccc(F)c(C(O)c2c[nH]c3ncc(-c4cccnc4)cc23)c1F (stereo not drawn) [Compound P-0009, 2,4-difluoro-3-[hydroxy-(5-pyridin-3-yl-1H-pyrrolo[2,3-b]pyridin-3-yl)-methyl]-phenol]
